Experimental data taken from US8901129B2, “Methods of facilitating neural cell survival using GDNF family ligand (GFL) mimetics or RET signaling pathway activators” (GeneCode AS, priority 2009, dated 2014).

Columns and labels:
RET via GFRα = target: T1, RET via GFRα (UniProt P07949+Q62997); assay: RET phosphorylation assay by immunoprecipitation and Western blotting (FIG. 4); assay type: cell-based; details: FIG. 4 lanes; active / inactive
T1 construct: Full-length flag-tagged rat Gfrα1 cDNA; FLAG; expressed in transfected cells; host or cells: αLUC cells: MG87RET murine fibroblasts stably transfected with GFRα1 plasmid, Gal4-Luc and Gal4-Elk
T1 sequence (Q62997 25-430 limits assumed): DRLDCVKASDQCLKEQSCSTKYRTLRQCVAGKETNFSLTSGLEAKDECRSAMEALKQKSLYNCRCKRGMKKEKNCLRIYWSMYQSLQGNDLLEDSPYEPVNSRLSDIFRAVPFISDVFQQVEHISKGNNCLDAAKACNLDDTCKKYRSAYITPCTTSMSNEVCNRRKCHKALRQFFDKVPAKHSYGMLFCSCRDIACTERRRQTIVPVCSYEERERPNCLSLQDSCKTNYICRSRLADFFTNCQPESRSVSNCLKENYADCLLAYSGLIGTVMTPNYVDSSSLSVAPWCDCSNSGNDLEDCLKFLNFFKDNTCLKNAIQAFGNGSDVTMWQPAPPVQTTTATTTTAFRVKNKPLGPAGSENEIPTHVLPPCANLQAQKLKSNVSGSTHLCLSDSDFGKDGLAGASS
T1 sequence (P07949 29-1114): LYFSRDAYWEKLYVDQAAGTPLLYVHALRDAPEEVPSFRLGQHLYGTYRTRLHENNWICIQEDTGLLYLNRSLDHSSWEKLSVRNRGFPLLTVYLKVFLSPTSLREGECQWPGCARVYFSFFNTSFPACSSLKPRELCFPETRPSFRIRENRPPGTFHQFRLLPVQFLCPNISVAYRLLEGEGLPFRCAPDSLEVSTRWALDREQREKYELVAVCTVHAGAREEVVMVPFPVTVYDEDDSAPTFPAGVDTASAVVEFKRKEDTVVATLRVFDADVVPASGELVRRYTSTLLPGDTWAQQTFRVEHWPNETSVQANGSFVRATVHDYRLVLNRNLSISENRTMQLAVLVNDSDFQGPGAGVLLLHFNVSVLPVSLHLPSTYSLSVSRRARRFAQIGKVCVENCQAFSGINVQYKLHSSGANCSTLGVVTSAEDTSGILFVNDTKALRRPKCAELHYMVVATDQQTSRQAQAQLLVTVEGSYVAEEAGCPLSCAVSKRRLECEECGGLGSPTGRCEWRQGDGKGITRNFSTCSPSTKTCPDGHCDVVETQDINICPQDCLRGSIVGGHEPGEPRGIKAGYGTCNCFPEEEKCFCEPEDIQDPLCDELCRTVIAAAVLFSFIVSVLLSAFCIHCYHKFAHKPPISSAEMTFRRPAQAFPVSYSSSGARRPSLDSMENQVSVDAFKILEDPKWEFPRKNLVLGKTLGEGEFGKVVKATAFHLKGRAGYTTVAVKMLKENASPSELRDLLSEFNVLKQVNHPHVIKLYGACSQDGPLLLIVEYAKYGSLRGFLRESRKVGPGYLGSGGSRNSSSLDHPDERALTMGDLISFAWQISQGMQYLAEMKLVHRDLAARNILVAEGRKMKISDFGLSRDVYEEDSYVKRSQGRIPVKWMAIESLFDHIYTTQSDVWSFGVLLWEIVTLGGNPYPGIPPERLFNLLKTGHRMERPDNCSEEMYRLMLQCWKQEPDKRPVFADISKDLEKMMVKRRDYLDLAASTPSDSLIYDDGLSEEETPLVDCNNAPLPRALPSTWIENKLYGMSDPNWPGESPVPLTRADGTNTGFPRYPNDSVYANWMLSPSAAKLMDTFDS
Protocol: αLUC and NOα cells plated on 35 mm tissue culture dishes were starved for 4 hours in serum-free DMEM and stimulated with 500 ng/ml of PSPN or 100 ng/ml of GDNF (positive control) for 15 min. […] The membranes were washed 3 times for 5 min in TBS-T and incubated in the 1:3000 solution of secondary anti-mouse antibodies conjugated with HRP (DAKO) diluted in TBS-T containing 3% nonfat dry milk for 45 min at room temperature. Membranes were washed with TBS-T for 5×10 min. Stained bands were visualized with ECL reagent (Pierce) using LAS3000 imaging program. […] We used secondary anti-goat antibodies conjugated with HRP (1:1500, DAKO) to detect C-20.

6-OHDA lesioned rats = assay: Amphetamine induced rotation asymmetry in 6-OHDA rat model of Parkinson's disease (FIG. 7); assay type: in vivo
Text: The objective of this study is to investigate the effect of intrastriatally (i.s.) administered small molecule GDNF mimetics (compounds 13, 16, 319H6 and 292651, structures shown in the description of the Figures, above) in a rat model 6-OHDA of Parkinson's disease. In the sub-acute lesion model used in this study, the lesion of the substantia nigra (SNc) that slowly progresses over weeks is created by injection of 6-OHDA into the proximity of the dopaminergic terminals in the striatum (Kirik-D 1998, Exp. Neurol. 152:259-277). In this model, a portion of the nigrostriatal projection is left intact, which can serve as a substrate for regeneration and functional recovery in response to growth promoting and neuroprotective agents.
(§1) GDNF mimetics compounds, GDNF or vehicle is administered to the striatum at 3 weeks after the exposure to the neurotoxin 6-OHDA. The selective damage to dopaminergic neurons in the SNc, as well as striatal levels of dopamine and its metabolites are evaluated 12 weeks after the injection of 6-OHDA with tyrosine hydroxylase (TH) immunohistochemistry and HPLC, respectively. In addition, the behavioral impairment of rats is evaluated by forelimb asymmetry test (cylinder test), amphetamine induced rotation asymmetry test and Y-maze test for stereotypic spontaneous rotation deficits.
Animals: All animal experiments are carried out according to the National Institute of Health (NIH) guidelines for the care and use of laboratory animals, and approved by the State Provincial Office of Southern Finland. Altogether 108 male Wistar rats, purchased from Charles River, Germany and weighing 220-275 g are used for the experiment. Animals are housed at a standard temperature (22±1° C.) and in a light-controlled environment (lights on from 7 am to 8 pm) with ad libitum access to food and water. Animals are grouped as follows:
In order to generate partial retrograde degeneration into the SNc, 6-OHDA lesioning is carried out according to Sauer and Oertel with modifications (Sauer and Oertel, 1994). Male Wistar rats are anesthetized with 5% isoflurane (in 70% N2O and 30% O2; flow 300 ml/min) and placed in a stereotactic frame. During the operation concentration of anesthetic is reduced to 1-1.5%. The rectal temperature is maintained at 37.0±1.0° C. with a homeothermic blanket system. The right brain hemisphere is exposed through a small craniectomy to the skull. The dura mater is carefully removed with fine forceps and a stereotaxic injection of 6-OHDA (4 μg/μl) is made into the right striatum. A total of 7 μl of 6-OHDA is infused at a speed of 0.5 μl/min and is equally distributed between 4 sites at the following coordinates: AP+1.0, ML+2.8, DV−6.0, −5.5, −5.0 and −4.4 mm. The cannula is left in place for another 5 min before being withdrawn. The hole in the skull is subsequently filled with repair material and the skin is closed and disinfected. The rats are allowed to recover from anesthesia and are carefully monitored for possible post surgical complications. The animals are returned to the home cages with ad libitum access to food and water.
On day 21, rats are re-anesthetized with 5% isoflurane (in 70% N2O and 30% O2; flow 300 ml/min) and placed in a stereotactic frame. During the operation concentration of anesthetic is reduced to 1-1.5%. The rectal temperature is maintained at 37.0±1.0° C. with a homeothermic blanket system. The right brain hemisphere is exposed through a small craniectomy to the skull. A stereotaxic injection of the test compound, GDNF or vehicle is made into the right striatum. Each dosing solution is infused at a speed of 1 μl/min and is equally distributed between 4 sites at the following coordinates: AP+1.0, ML+2.8, DV−6.0, −5.5, −5.0 and −4.4 mm. The cannula is left in place for another 5 min before being withdrawn. The hole in the skull is subsequently filled with repair material and the skin is closed and disinfected. […]

6-OHDA-treated rats = assay: Side effects / toxic effects after intrastriatal injection in 6-OHDA-treated rats; assay type: in vivo; details: injected intrastriatally
Protocol: as §1
On day 21, rats are re-anesthetized with 5% isoflurane (in 70% N2O and 30% O2; flow 300 ml/min) and placed in a stereotactic frame. During the operation concentration of anesthetic is reduced to 1-1.5%. The rectal temperature is maintained at 37.0±1.0° C. with a homeothermic blanket system. The right brain hemisphere is exposed through a small craniectomy to the skull. A stereotaxic injection of the test compound, GDNF or vehicle is made into the right striatum. Each dosing solution is infused at a speed of 1 μl/min and is equally distributed between 4 sites at the following coordinates: AP+1.0, ML+2.8, DV−6.0, −5.5, −5.0 and −4.4 mm. The cannula is left in place for another 5 min before being withdrawn. The hole in the skull is subsequently filled with repair material and the skin is closed and disinfected. The rats are allowed to recover from anesthesia and are carefully monitored for possible post surgical complications. The animals are returned to the home cages with ad libitum access to food and water.
Animals are monitored daily by laboratory personnel. […] Definitions of acceptable endpoints include: no spontaneous movements and inability to drink or eat in 24-h observation period, massive bleeding, spontaneous inflammation, missing anatomy, swelling or tumors larger than 20 mm, and inability to right itself in 30 sec period.

[1] = test system: GFRα1/RET-expressing cells; assay: Reporter-gene luciferase activity assay, dose-response (FIG. 5); assay type: cell-based; details: 1-50 μM, 24 h
Protocol: (§2) Generation of stable cell lines. MG87RET murine fibroblast were plated on […] dishes and transfected with 4 μg of G4-Luc, Gal4-Elk (Baloh et al., 2000) and GFRα1 expressing plasmid (“αLUC” cells) or empty vector (“NOα” cells) containing neomycin-resistance gene in ratio 4:1:1 using Lipofectamine 2000 (Invitrogen) for DNA delivery as described by manufacturer. The following day, cells were trypsinized and plated in low density on 10-cm tissue culture dishes. Stable transformants were selected in the presence of 500-750 μg/ml geneticin (Invitrogen). Established cell lines were maintained in DMEM, 10% fetal bovine serum (FBS), 100 μg/ml Normocin (Invivogene), 2 μg/ml of puromycin, 500 μg/ml of geneticin, 15 mM HEPES, pH 7.2. Pathdetect Elk-1 system and human GFRα1-expressing plasmid (“Strat-Luc” cells) or empty vector (control cell line “NOStratis”) cells were selected and maintained in the DMEM, 10% FBS, 100 μg/ml Normocin (Invivogene), 2 μg/ml of puromycin, 500 μg/ml of G418, 2 μg/ml of blasticidin S, 15 mM HEPES, pH 7.2.
(§3) Cells were plated on 96-well plates (or 384-well) in cell density 20 000 (or 5 000 for 384-well format) cells per well in DMEM, 10% FBS, 100 μg/ml Normocin, 2 μg/ml puromycin, 500 μg/ml of G418, 15 mM HEPES, pH 7.2 one day before assay. The following day, the compounds were added to a final concentration of 1-50 μM. Structures of the compounds are shown in the description of FIG. 5, above. Cells were allowed to produce luciferase for 24 h, then lysed in 20 μl of 1×Cell culture lysis reagent (Promega) and freeze-thawed once to ensure complete lysis. Then 5 μl of the lysate was mixed (on ice) with 20 μl of luciferase assay substrate (Promega) in a well of black Isoplate (PerkinElmer). Luminescence was counted on MicroBeta 2 counter (PerkinElmer) twice. Data are presented as fold induction, where the corresponding concentration of DMSO was used as a reference.

[2] = test system: RET-expressing reporter cell line (RET alone); assay: as above; assay type: cell-based; details: cells expressing RET alone; 1-50 μM, 24 h
Protocol: as §2, §3

[3] = test system: GFRα3/RET-expressing reporter cell line; assay: as above; assay type: cell-based, human; details: GFRα3/RET cells; 1-50 μM, 24 h
Text: Full-length flag-tagged rat Gfrα1 cDNA (Leppänen et al., 2004) subcloned into in pcDNA3 (Invitrogen). Full-length human GFRα1 cDNA (Sidorova et al., unpublished) subcloned in pcDNA6 (Invitrogen). Full-length human GFRα3 cDNA (Wang et al., 2006). Full-length human RET (long isoform) (Runeberg-Roos et al., 2007) in pCR3.1 (Invitrogen). The MAPK activation detection system (Baloh et al., 2000) and PathDetect Elk-1 (Stratagene) both of which include two plasmids. First one constitutively expresses MAPK pathway specific fusion transactivator, that consists of activation domain of Elk-1 and DNA-binding domain of the yeast GAL4 protein (Gal4-Elk1). The other plasmid, Gal4-Luc, carries luciferase gene under the control of a synthetic promoter containing the yeast GAL4 binding sequences.
as §3

GFRα1/RET = target: T2, GFRα1/RET (Homo sapiens, UniProt P07949+P56159); assay: RET phosphorylation by BT compounds, IP and Western blotting (FIG. 6A); assay type: cell-based; details: 100 μM, 15 min; MG87 RET fibroblasts transfected with GFRα1
T2 construct: Full-length human GFRα1 cDNA (Sidorova et al., unpublished) subcloned in pcDNA6; expressed in transfected cells; host or cells: MG87RET murine fibroblasts transiently transfected with GFRα1
T2 sequence (P56159 25-429 limits assumed, species assumed): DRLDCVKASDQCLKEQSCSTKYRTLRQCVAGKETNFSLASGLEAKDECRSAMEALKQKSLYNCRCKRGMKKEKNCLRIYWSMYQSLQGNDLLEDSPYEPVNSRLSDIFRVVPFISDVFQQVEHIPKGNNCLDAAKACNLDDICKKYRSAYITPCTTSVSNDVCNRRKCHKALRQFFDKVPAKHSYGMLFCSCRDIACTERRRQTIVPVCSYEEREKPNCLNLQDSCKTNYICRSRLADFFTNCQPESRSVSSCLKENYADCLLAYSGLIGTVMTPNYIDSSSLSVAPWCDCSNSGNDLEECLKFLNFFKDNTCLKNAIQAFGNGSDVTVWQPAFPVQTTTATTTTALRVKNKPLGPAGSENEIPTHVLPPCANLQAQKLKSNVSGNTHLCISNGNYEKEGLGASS
T2 sequence (P07949 29-1114, species assumed): as the sequence (P07949 29-1114) above
Protocol: (§4) MG87RET cells were plated on 35 mm tissue culture dishes the day before the experiment. Cells were transfected with GFRα1, GFRα3 or with an vector encoding for GFP. On the day of the experiment cells were starved for 4 hours in serum-free DMEM and stimulated with the investigated compounds (structures shown in the description of FIG. 6, above) at 100 μM concentration or with 100 ng/ml of GDNF or ARTN (positive control) for 15 min. Then cells were washed once with ice-cold PBS containing 1 mM Na3VO4 and lysed on ice in 1 ml per well of RIPA-modified buffer (50 mM Tris-HCl, pH 7.4, 150 mM NaCl, 1 mM EDTA, 1% NP-40, 1% TX-100, 10% glycerol, EDTA-free protease inhibitor cocktail (Roche), 1 mM Na3VO4, 2.5 mg/ml of sodium deoxycholate, 1 mM PMSF. Ret was immunoprecipitated by anti-RET C-20 antibodies (Santa-Cruz Biotechnology, Inc.). Precipitated proteins were resolved on 7.5% SDS-PAGE and then transferred onto a nitrocellulose membrane. Membrane was blocked for 15 min at room temperature by 10% nonfat dry milk in TBS-T and probed with anti-phosphotyrosine antibodies (clone 4G10, Upstate Biotechnology) diluted 1:1000 in TBS-T containing 3% nonfat dry milk for 2 hours at room temperature. The membranes were washed 3 times for 5 min in TBS-T and incubated in the 1:3000 solution of secondary anti-mouse antibodies conjugated with HRP (DAKO) diluted in TBS-T containing 3% nonfat dry milk for 45 min at room temperature. Membranes were washed with TBS-T for 5×10 min. Stained bands were visualized with ECL reagent (Pierce) using LAS3000 imaging program. To confirm equal loading of the proteins, membranes were probed with anti-RET C-20 antibodies (1:500, Santa-Cruz Biotechnology, inc.) after stripping. We used secondary anti-goat antibodies conjugated with HRP (1:1500, DAKO) to detect C-20.

GFRα3/RET = target: T3, GFRα3/RET (Homo sapiens, UniProt O60609+P07949); assay: RET phosphorylation by BT compounds, IP and Western blotting (FIG. 6B); assay type: cell-based; details: 100 μM, 15 min; MG87 RET fibroblasts transfected with GFRα3
T3 construct: Full-length human GFRα3 cDNA (Wang et al., 2006); expressed in transfected cells; host or cells: MG87RET murine fibroblasts transiently transfected with GFRα3
T3 sequence (O60609 32-374 limits assumed): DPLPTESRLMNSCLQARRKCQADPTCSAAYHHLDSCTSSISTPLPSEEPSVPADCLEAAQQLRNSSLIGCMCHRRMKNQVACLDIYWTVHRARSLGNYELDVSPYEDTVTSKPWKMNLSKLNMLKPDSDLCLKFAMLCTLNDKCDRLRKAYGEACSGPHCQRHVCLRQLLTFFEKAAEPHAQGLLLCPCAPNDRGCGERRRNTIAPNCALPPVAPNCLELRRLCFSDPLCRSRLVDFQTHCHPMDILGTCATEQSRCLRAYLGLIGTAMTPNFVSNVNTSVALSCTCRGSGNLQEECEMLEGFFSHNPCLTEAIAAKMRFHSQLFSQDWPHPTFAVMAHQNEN
T3 sequence (P07949 29-1114): as the sequence (P07949 29-1114) above
Protocol: as §4

[4] = test system: MG87RET murine fibroblasts; assay: Cell viability, CelTiterGlo (FIG. 8); assay type: cell-based; details: concentrations above 2 μM, 48 hours
Protocol: The test compounds were transferred into in 384-well culture plate using Echo acoustic dispenser (Labcyte Inc.) in 2.5-125 nl volume. Trypsinized MG87RET murine fibroblasts were seeded at 20 000 cells/ml (500 cells/well) in the presence of each compound dissolved in DMSO at the indicated concentration. After brief mixing on a horizontal shaker, the plates were centrifuged and transferred into the incubator. Two days (48 hours) after addition of cells to compounds, the viability of the cells was evaluated using CelTiterGlo reagent (Promega).

`CCN(CC)CCCC(C)Nc1cc(/C=C/c2ccc(Cl)cc2)nc2cc(N(C)C)ccc12` (stereo not shown) [compound 292651] was tested, and the “RET activation (phosphotyrosine Western blot of immunoprecipitated RET)” value (RET via GFRα) was “active”, the amphetamine-induced ipsilateral rotation (6-OHDA lesioned rats; 1 ug intrastriatal, 3 weeks after 6-OHDA, measured 6 weeks after 6-OHDA) was “reduced amphetamine-induced ipsilateral rotation” and the “amphetamine-induced ipsilateral rotation of lesioned rats” value (6-OHDA lesioned rats; injected into striatum 3 weeks after 6-OHDA, dose not stated) was “significantly reduce”. For the same compound, the “toxic effects in behavioral assays” value (6-OHDA-treated rats) was “did not cause toxic effects”.

`COc1ccc(S(=O)(=O)N2CCC(Cc3ccccc3)CC2)cc1N1CCN(C(=O)c2cc(F)ccc2C(F)(F)F)CC1` [BT17] was tested, and the “induction of luciferase expression” value [1] was “in a dose-dependent manner induce luciferase expression”, the “induction of luciferase expression” value [2] was “No significant effect” and the “induction of luciferase expression” value [3] was “in a dose-dependent manner induce luciferase expression”. The “RET phosphorylation via GFRα1” value (GFRα1/RET) was “likely the weaker GFRα1/RET agonists” and the “RET phosphorylation via GFRα3” value (GFRα3/RET) was “likely the weaker GFRα3/RET agonists”.

With `CCN(CC)CCCC(C)Nc1cc(/C=C/c2ccccc2Cl)nc2cc(Cl)ccc12` (stereo not shown) [BT10] the “toxicity (cell viability)” value [4] was “significant toxicity”.
